Here are results for one compound from publication PMC11475320 (2024).

Holding throughout (assay): CD melting at 260 nm
The subject of experiment [1] is As1411 (DNA, G4) GGTGGTGGTGGTTGTGGTGGTGGTGG
The conditions noted are these: K+ 40 mM, Mg2+ from TAMg buffer (0.04×), 2% DMF, 4 μM ZnPc, 16 μM DNA, derived from two Tm (59.8, 61.7).

For experiment [2], the system named is AsGq (G-quadruplex of As4625') (DNA, G4) GGTGGTGGTGGTTGTGGTGGTGGTGGAACGGAGGCTGGGAT
Conditions: K+ 40 mM, Mg2+ from TAMg buffer (0.04×), 2% DMF, 4 μM ZnPc, 16 μM DNA, derived from two Tm (53.0, 54.6).

The subject of experiment [3] is AsGq-4625 (DNA, G4, strand 2: 2'-OMe at 1-5 and 16-20 (text b19; Table S1 footnote says 2'-modification with hydroxy group); phosphorothioate at all linkages) GGTGGTGGTGGTTGTGGTGGTGGTGGAACGGAGGCTGGGAT/AAGGCATCCCAGCCTCCGUU
Conditions: K+ 40 mM, Mg2+ from TAMg buffer (0.04×), 2% DMF, 4 μM ZnPc, 16 μM DNA, derived from two Tm (52.3, 53.1).

The ΔTm is the shift of the melting midpoint relative to a reference. Turning to `[Zn+2].c1ccc2c(c1)-c1nc3nc(nc4[n-]c(nc5[n-]c(nc-2n1)c1ccccc51)c1ccccc41)-c1ccccc1-3`, the ΔTm worked out at 1.9 °C in experiment [1], 1.6 °C in experiment [2] and 0.8 °C in experiment [3].
